Laboratory results: patent US20220204473A1, “COMPOUND AS IRAK INHIBITOR” (SHANGHAI MEIYUE BIOTECH DEVELOPMENT CO., LTD., priority 2018, published 2022)

What was measured:
human IRAK1 = biological target: T1, human IRAK1 (Homo sapiens, UniProt P51617); assay: IRAK1 MSA (Mobility-Shift Assay) at Km ATP; type: biochemical
T1 construct: purchased Cama (so in the source)
Protocol: 5 μL of the intermediate dilutions were transferred into a black 384-well plate.
IRAK1 was diluted to 7.5 nM in the kinase buffer (50 mM HEPES, pH 7.5, 0.00015% Brij-35, 2 mM DTT). 10 μL of the IRAK1 dilution was transferred to the 384-well plate and co-incubated with the compound for 10-15 min.
(§1) The substrate and ATP were diluted to 12.5 μM and 242.5 μM with reaction buffer (50 mM HEPES, pH 7.5, 0.00015% Brij-35, 10 mM MgCl2), respectively. 10 μL of the dilutions was transferred to a 384-well plate and incubated at 28° C. for 1 h. The reaction was terminated by adding 25 μL of 50 mM EDTA to the 384-well plate.
The inhibition rates of IRAK1 by the compounds were calculated by measuring the rate of phosphorylated substrate using a Caliper EZ Reader (PerkinElmer) and the IC50 values were calculated by XL-fit software.

human IRAK4 = biological target: T2, human IRAK4 (Homo sapiens, UniProt Q9NWZ3); assay: IRAK4 MSA (Mobility-Shift Assay) at Km ATP; type: biochemical; details: GST-IRAK4 1 nM, ATP 37 μM (Km); read-out: IC50 for inhibiting human IRAK4 kinase
T2 construct: purchased Cama (so in the source)
T2 sequence (Q9NWZ3 1-460): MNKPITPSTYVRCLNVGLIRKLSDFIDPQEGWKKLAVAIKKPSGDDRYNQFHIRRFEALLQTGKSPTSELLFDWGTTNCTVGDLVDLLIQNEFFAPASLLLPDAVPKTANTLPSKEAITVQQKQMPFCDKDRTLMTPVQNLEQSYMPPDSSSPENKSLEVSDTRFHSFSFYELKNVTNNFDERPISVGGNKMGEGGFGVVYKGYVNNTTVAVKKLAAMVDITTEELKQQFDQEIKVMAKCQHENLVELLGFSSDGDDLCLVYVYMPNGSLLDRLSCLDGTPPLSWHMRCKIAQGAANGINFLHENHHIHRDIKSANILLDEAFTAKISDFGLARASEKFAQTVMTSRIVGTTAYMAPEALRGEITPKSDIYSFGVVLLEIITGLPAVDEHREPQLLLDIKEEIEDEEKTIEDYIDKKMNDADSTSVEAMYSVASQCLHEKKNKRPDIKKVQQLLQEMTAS
Protocol: A recombinant fusion protein of N-terminal GST (glutathione-S-transferase) and human IRAK4 was used as enzyme (GST-IRAK4, kinase IRAK4 (Cama)) at a final concentration of 1 nM; ATP (Sigma) was at a final concentration of 37 μM; the substrates used for the kinase reaction were a 5-FAM (5-carboxyfluorescein)-labeled polypeptide (5-FAM-[…]-COOH) and a substrate peptide FAM-P8 (GL Biochem) at final concentrations of […].
In this assay, 500 μM solutions of the compounds were prepared in 100% DMSO, and serially 4-fold diluted to the 10th concentration gradient with 100% DMSO, followed by a 10-fold dilution in the compound buffer (50 mM HEPES. pH 7.5, 0.00015% Brij-35) to give intermediate dilutions of the compounds at a final concentration of 10 μM-0.04 nM containing 10% DMSO respectively, 5 μL of the dilutions were transferred into a black 384-well plate respectively.
IRAK4 was diluted to 2.5 nM in the kinase buffer (50 mM HEPES, pH 7.5, 0.00015% Brij-35, 2 mM DTT). 10 μL of the IRAK4 dilution was transferred to the 384-well plate and co-incubated with the compound for 10-15 min.
as §1, with “and 92.5” for “and 242.5”, “dilutions were” for “dilutions was”, “1 h respectively.” for “1 h.”
The inhibition rates of IRAK4 by the compounds were calculated by measuring the rate of phosphorylated substrate using a Caliper EZ Reader (PerkinElmer) and the IC50 values were calculated by XL-fit software.

[1] = tested on: TNF-α release in LPS-induced Balb/c female mice; assay: Inhibition of TNF-α release in LPS-induced Balb/c female mice; type: in vivo, mouse; set-up: concentration or dose not given beside the values; details: oral gavage 5 h before LPS induction, serum 1.5 h after stimulation
Protocol: In the normal control groups, the animals received an intraperitoneal injection of normal saline (10 mL/kg) and in the model groups, the animals received LPS stimulation (Sigma CAT #L2630, i.p., 10 mL/kg, 0.2 mg/kg). During the assay, to the test compounds, DMSO, Solutol and 10 mM PBS were sequentially added to prepare a solution or suspension of required concentration for administration. For the vehicle, DMSO, Solutol and 10 mM PBS were mixed in a volume ratio of 5:15:80. In each of the groups, the animals were administered through oral gavage (10 mL/kg) 5 h before LPS (or saline) stimulation at predetermined doses, and euthanized with CO2 at 1.5 h after the stimulation for cardiac blood collection. The whole blood was not anticoagulated, incubated in wet ice for 1.5 h, and centrifuged at 2000×g at 4° C. for 10 min to separate the serum. The serum was frozen at −80° C. for TNF-α assay. Quantification of the TNF-α was done with TNF-α ELISA kit according to the manufacturer's instruction.

[2] = tested on: IL-6 release in LPS-induced Balb/c female mice; assay: Inhibition of IL-6 release in LPS-induced Balb/c female mice; type: in vivo, mouse; set-up: concentration or dose not given beside the values; details: administered 5 h before LPS induction, serum
Protocol: Objective of the test: To determine the inhibitory effect of the compounds by measuring the plasma IL-6 concentration in a Balb/c mouse model with LPS-induced inflammation.
2.1 Prepared mouse serum samples (sample batch no. 20181218)
4.1 Reagent kit was equilibrated at room temperature (25-28° C.) for 20 min. After each detection, the remaining reagents were stored at 4° C.
4.3 Preparing reference standard: 1 vial of reference standard substance was added with labeled volume of reference standard diluent. The mixtures were incubated for 15 min at room temperature. Then the mixtures were gently mixed to completely dissolve the substance to prepare a reference standard stock at a final concentration of 1000 μg/mL.
4.4 Dilution of samples: The sample in each group was diluted by […], i.e., a 2-fold dilution with sample assay buffer followed by another two-fold dilution with standard diluent.
4.5 The diluted samples or standards of different concentrations were added into corresponding wells at 100 μL/well respectively, and a background correcting well (or a blank well) was set by adding only TMB buffer and terminating solution. The wells were sealed with a transparent film and incubated at room temperature for 120 min.
4.6 The plate was subjected to 5 washes, each with 300 μL of washing buffer for 15-30 sec. The plate was dried on thick absorbent paper after the last wash.
4.7 Biotinylated antibody was added at 100 μL/well (Note: the biotinylated antibody was prepared in advance and could be used directly without further dilution). The wells were sealed with a transparent film and incubated at room temperature for 60 min.
4.8 The plate was subjected to 5 washes, each with 300 μL of washing buffer for 15-30 sec. The plate was dried on thick absorbent paper after the last wash.
4.9 Horseradish peroxidase-labeled streptavidin was added at 100 μL/well. The wells were sealed with a white film and incubated away from light at room temperature for 20 min.
4.10 The plate was subjected to 5 washes, each with 300 μL of washing buffer for 15-30 sec. The plate was dried on thick absorbent paper after the last wash.
4.11 The chromogenic reagent TMB was added 100 μL/well. The wells were sealed with a white film and incubated away from light at room temperature for 20 min.
4.12 The terminating solution was added at 50 μL/well and A450 value was measured right after mixing.

T1 sequence (P51617 whole entry): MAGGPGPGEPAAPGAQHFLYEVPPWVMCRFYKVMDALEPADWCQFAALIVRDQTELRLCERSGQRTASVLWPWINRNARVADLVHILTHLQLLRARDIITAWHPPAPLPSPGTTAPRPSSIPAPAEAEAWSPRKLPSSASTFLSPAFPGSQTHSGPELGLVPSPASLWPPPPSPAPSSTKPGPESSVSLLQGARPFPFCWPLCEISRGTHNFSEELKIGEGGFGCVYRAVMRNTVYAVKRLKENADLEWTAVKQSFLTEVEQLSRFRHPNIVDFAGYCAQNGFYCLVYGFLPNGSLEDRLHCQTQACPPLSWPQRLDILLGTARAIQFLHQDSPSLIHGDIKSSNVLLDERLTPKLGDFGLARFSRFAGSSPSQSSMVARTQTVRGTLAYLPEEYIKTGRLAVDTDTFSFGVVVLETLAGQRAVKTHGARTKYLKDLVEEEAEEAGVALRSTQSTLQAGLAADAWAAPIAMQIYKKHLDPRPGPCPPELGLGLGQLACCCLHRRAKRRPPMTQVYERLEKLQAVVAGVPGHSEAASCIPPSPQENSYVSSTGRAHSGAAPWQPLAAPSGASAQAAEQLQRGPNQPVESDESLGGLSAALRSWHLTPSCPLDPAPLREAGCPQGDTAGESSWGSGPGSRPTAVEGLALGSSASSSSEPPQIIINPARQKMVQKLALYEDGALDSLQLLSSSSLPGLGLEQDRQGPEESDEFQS

| SMILES | IC50 (human IRAK1) [nM] | IC50 (IRAK1)/IC50 (IRAK4) (human IRAK1; selectivity for IRAK4) | IC50 (human IRAK4) [nM] | Inhibition rate of TNF-α [1] [%] | Inhibition rate of IL-6 [2] [%] |
| --- | --- | --- | --- | --- | --- |
| CC(C)(O)c1cc2nn([C@H]3C[C@H](C(C)(C)O)C3)cc2cc1NC(=O)c1cccc(C(F)(F)F)n1 [MY-004-109] | 4320 | 745 | 5.8 |  |  |
| COc1cc2nn([C@H]3C[C@H](C(C)(C)O)C3)cc2cc1NC(=O)c1cccc(C(F)F)n1 [MY-004-115] |  |  | 2 | 89.59 | 93.35 |
